# Reference: US6664231B1, “Anti-fungal peptides” (priority 1993, dated 2003)
# Square brackets hold non-standard residues; d marks the D form. Peptide text beside a SMILES is read from it. Phe(4-NH2) = Nc1ccc(C[C@H](N)C(=O)O)cc1; 1Nal = N[C@@H](Cc1cccc2ccccc12)C(=O)O; Tle = CC(C)(C)[C@H](N)C(=O)O
# Tested on: C. albicans (CA-1, Strain SLU-1)
# Test: Radial diffusion assay
# Format: cell-based, Candida albicans
# Details: HPLC-purified peptide; nanomoles required to achieve a net 30 mm^2 zone (log titration curve)
# Summary of the method: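 Peptides, serially diluted 2-fold in D-PBS (top ~1 mg/mL), diffused 3 h at 37° C into pH 7.4 phosphate-buffered agarose seeded with 1×10^6 CFU/mL yeast, before overnight growth under a 6% Sabouraud overlayer. Net inhibition zones measured after Coomassie staining; PROBIT fit of log pmol vs area gave pmol for 30 mm^2.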
row,Compound,"Plate Assay (nmol), pure peptide activity"
1,H-KVKWLIQLFHK-NH2 [Peptide 288],0.279 nmol

# Same assay, conditions: crude peptide; nanomoles required to achieve a net 30 mm^2 zone (log titration curve)
row,Compound,"Plate Assay (nmol), crude peptide activity"
1,H-VKWLIQLFHK-NH2 [Peptide 292],>4.063 nmol
2,H-KVKWLIQLFHK-NH2 [Peptide 288],3.639 nmol
3,H-KVKWLIQ-NH2 [Peptide 306],>10.485 nmol

# Same assay, conditions: pmoles of peptide added to well to achieve a 30 mm^2 zone, PROBIT analysis; crude or purified (P′) peptide
row,Compound,C. albicans pmol/30 mm^2 zone
1,CC[C@H](C)[C@H](NC(=O)[C@H](CC(C)C)NC(=O)[C@H](Cc1c[nH]c2ccccc12)NC(=O)[C@H](Cc1ccc(N)cc1)NC(=O)[C@@H](NC(=O)[C@H](CCCCN)NC(=O)[C@H](CO)NC(=O)[C@@H](N)CCCCN)C(C)C)C(=O)N[C@@H](CCC(N)=O)C(=O)N[C@@H](Cc1cccc2ccccc12)C(=O)N[C@@H](Cc1ccccc1)C(=O)N[C@@H](Cc1c[nH]cn1)C(=O)N[C@@H](CCCCN)C(=O)N[C@@H](CCCCN)C(N)=O [XMP.236] (H-KSKV[Phe(4-NH2)]WLIQ[1Nal]FHKK-NH2),">2,631 pmol/30 mm^2 zone"
2,CC[C@H](C)[C@H](NC(=O)[C@H](CC(C)C)NC(=O)[C@H](Cc1c[nH]c2ccccc12)NC(=O)[C@H](CCCCN)NC(=O)[C@@H](N)CCCCN)C(=O)N[C@@H](CCC(N)=O)C(=O)N[C@@H](CC(C)C)C(=O)N[C@@H](CCCCN)C(N)=O [XMP.326],"2,182 pmol/30 mm^2 zone"
3,H-KSKVGWLILLWHKK-NH2 [XMP.241],">2,161 pmol/30 mm^2 zone"
4,H-KSKVGWLIQLFHKF-NH2 [XMP.96],1856 pmol/30 mm^2 zone
5,H-KSKVGWLIELFHKK-NH2 [XMP.263],"1,197 pmol/30 mm^2 zone"
6,H-LIQLFHKK-NH2 [XMP.304],">8,290 pmol/30 mm^2 zone"
7,H-KSKVKVAIQLFHKK-NH2 [XMP.269],635 pmol/30 mm^2 zone
8,XMP.384: K - K - L - L - L - L - Q - K - K (SEQ ID NO:215) (KKLLLLQKK),"2,804 pmol/30 mm^2 zone"
9,CC[C@H](C)[C@H](NC(=O)[C@H](CC(C)C)NC(=O)[C@H](Cc1cccc2ccccc12)NC(=O)CNC(=O)[C@@H](NC(=O)[C@H](CCCCN)NC(=O)[C@H](CO)NC(=O)[C@@H](N)CCCCN)C(C)C)C(=O)N[C@@H](CCC(N)=O)C(=O)N[C@@H](CC(C)C)C(=O)N[C@@H](Cc1ccccc1)C(=O)N[C@@H](Cc1cccc2ccccc12)C(=O)N[C@@H](CCCCN)C(=O)N[C@@H](CCCCN)C(N)=O [XMP.148] (H-KSKVG[1Nal]LIQLF[1Nal]KK-NH2),>2805 pmol/30 mm^2 zone
10,H-KSKVGGLIQLFHKK-NH2 [XMP.249],"1,242 pmol/30 mm^2 zone"
11,H-KSKAGWLIQLFHKK-NH2 [XMP.34],319 pmol/30 mm^2 zone
12,"XMP.390: 151-161, K @ 151 (V), P @ 152 (G) (SEQ ID NO:221) (KPWLIQLFHKK)",674 pmol/30 mm^2 zone
13,H-SKVKWLIQLF-NH2 [XMP.290],">2,233 pmol/30 mm^2 zone"
14,H-VKWLIQLFHKK-NH2 [XMP.289],"1,542 pmol/30 mm^2 zone"
15,CC[C@H](C)[C@H](NC(=O)[C@H](CC(C)C)NC(=O)[C@@H](Cc1ccccc1)NC(=O)CNC(=O)[C@@H](NC(=O)[C@H](CCCCN)NC(=O)[C@H](CO)NC(=O)[C@@H](N)CCCCN)C(C)C)C(=O)N[C@@H](CCC(N)=O)C(=O)N[C@@H](CC(C)C)C(=O)N[C@@H](Cc1ccccc1)C(=O)N[C@@H](Cc1c[nH]cn1)C(=O)N[C@@H](CCCCN)C(=O)N[C@@H](CCCCN)C(N)=O [XMP.128],1179 pmol/30 mm^2 zone
16,H-KSKVGWLIFLFHKKKSKVGWLIFLFHKK-NH2 [XMP.275],b (No detectable activity up to 5 μg/well)
17,H-KVKWLIQLFHK-NH2 [XMP.288],">3,062 pmol/30 mm^2 zone"
18,H-IQLFHKK-NH2 [XMP.311],b (No detectable activity up to 5 μg/well)
19,H-KKWLIQL-NH2 [XMP.325],"4,135 pmol/30 mm^2 zone"
20,H-WLIQLK-NH2 [XMP.321],">5,851 pmol/30 mm^2 zone"

row,Compound,C. albicans pmol/30 mm^2 zone
1,H-SKVKWLIQLFH-NH2 [XMP.287],">3,509 pmol/30 mm^2 zone"
2,CC[C@H](C)[C@H](NC(=O)[C@H](CC(C)C)NC(=O)[C@H](Cc1c[nH]c2ccccc12)NC(=O)[C@H](Cc1ccc(N)cc1)NC(=O)[C@@H](NC(=O)[C@H](CCCCN)NC(=O)[C@H](CO)NC(=O)[C@@H](N)CCCCN)C(C)C)C(=O)N[C@@H](CCC(N)=O)C(=O)N[C@@H](CC(C)C)C(=O)N[C@@H](Cc1ccccc1)C(=O)N[C@@H](Cc1cccc2ccccc12)C(=O)N[C@@H](CCCCN)C(=O)N[C@@H](CCCCN)C(N)=O [XMP.233] (H-KSKV[Phe(4-NH2)]WLIQLF[1Nal]KK-NH2),b (No detectable activity up to 5 μg/well)
3,Ac-PWLIQLFHKK-OH [XMP.354],"6,361 pmol/30 mm^2 zone"
4,CC[C@H](C)[C@H](NC(=O)[C@H](CC(C)C)NC(=O)[C@@H](NC(=O)CNC(=O)[C@@H](NC(=O)[C@H](CCCCN)NC(=O)[C@H](CO)NC(=O)[C@@H](N)CCCCN)C(C)C)C(C)(C)C)C(=O)N[C@@H](CCC(N)=O)C(=O)N[C@@H](CC(C)C)C(=O)N[C@@H](Cc1ccccc1)C(=O)N[C@@H](Cc1c[nH]cn1)C(=O)N[C@@H](CCCCN)C(=O)N[C@@H](CCCCN)C(N)=O [XMP.258] (H-KSKVG[Tle]LIQLFHKK-NH2),880 pmol/30 mm^2 zone
5,H-KSKVKVLIQLFHKK-NH2 [XMP.266],984 pmol/30 mm^2 zone
6,H-KSKVGWLIQLFHKKKSKVGWLIQLFHKK-NH2 [XMP.29],>1469 pmol/30 mm^2 zone
7,H-KSKVGWLILLFHKK-NH2 [XMP.86],>2048 pmol/30 mm^2 zone
8,H-KSKVGWLIQLFHKKKSKVGWLIFLFHKK-NH2 [XMP.274],">2,457 pmol/30 mm^2 zone"
9,H-KSKVKWAIQLFHKK-NH2 [XMP.267],256 pmol/30 mm^2 zone
10,CC[C@H](C)[C@H](NC(=O)[C@H](CC(C)C)NC(=O)[C@H](Cc1c[nH]c2ccccc12)NC(=O)[C@@H](N)CCCCN)C(=O)N[C@@H](CCC(N)=O)C(=O)N[C@@H](CC(C)C)C(=O)N[C@@H](CCCCN)C(=O)N[C@@H](CCCCN)C(N)=O [XMP.324],894 pmol/30 mm^2 zone
11,CC[C@H](C)[C@H](NC(=O)[C@H](CC(C)C)NC(=O)[C@@H](N)Cc1c[nH]c2ccccc12)C(=O)N[C@@H](CCC(N)=O)C(=O)N[C@@H](CC(C)C)C(=O)N[C@@H](Cc1ccccc1)C(=O)N[C@@H](Cc1c[nH]cn1)C(=O)N[C@@H](CCCCN)C(N)=O [XMP.303],">4,694 pmol/30 mm^2 zone"
12,H-WLIQLF-NH2 [XMP.316],b (No detectable activity up to 5 μg/well)
13,H-KSKVGWLIQLFAKK-NH2 [XMP.42],548 pmol/30 mm^2 zone
14,H-KSKVGWLIQLAHKK-NH2 [XMP.41],734 pmol/30 mm^2 zone
15,CC[C@H](C)[C@H](NC(=O)[C@H](CC(C)C)NC(=O)[C@@H](N)Cc1c[nH]c2ccccc12)C(=O)N[C@@H](CCC(N)=O)C(=O)N[C@@H](CC(C)C)C(=O)N[C@@H](Cc1ccccc1)C(=O)N[C@@H](Cc1c[nH]cn1)C(=O)N[C@@H](CCCCN)C(=O)N[C@@H](CCCCN)C(N)=O [XMP.298],"2,628 pmol/30 mm^2 zone"
16,CC[C@H](C)[C@H](NC(=O)[C@H](CC(C)C)NC(=O)[C@H](Cc1c[nH]c2ccccc12)NC(=O)CNC(=O)[C@@H](NC(=O)[C@H](CCCCN)NC(=O)[C@H](CO)NC(=O)[C@@H](N)CCCCN)C(C)C)C(=O)N[C@@H](CCC(N)=O)C(=O)N[C@@H](CC(C)C)C(=O)N[C@@H](Cc1ccccc1)C(=O)N[C@@H](Cc1cccc2ccccc12)C(=O)N[C@@H](CCCCN)C(=O)N[C@@H](CCCCN)C(N)=O [XMP.110] (H-KSKVGWLIQLF[1Nal]KK-NH2),>2922 pmol/30 mm^2 zone
17,CC[C@H](C)[C@H](NC(=O)[C@H](CC(C)C)NC(=O)[C@H](Cc1c[nH]c2ccccc12)NC(=O)CNC(=O)[C@@H](NC(=O)[C@H](CCCCN)NC(=O)[C@H](CO)NC(=O)[C@@H](N)CCCCN)C(C)C)C(=O)N[C@@H](CCC(N)=O)C(=O)N[C@@H](Cc1cccc2ccccc12)C(=O)N[C@@H](Cc1ccccc1)C(=O)N[C@@H](Cc1c[nH]cn1)C(=O)N[C@@H](CCCCN)C(=O)N[C@@H](Cc1cccc2ccccc12)C(N)=O [XMP.227] (H-KSKVGWLIQ[1Nal]FHK[1Nal]-NH2),">2,365 pmol/30 mm^2 zone"
18,CC[C@H](C)[C@H](NC(=O)[C@H](CC(C)C)NC(=O)[C@H](Cc1c[nH]c2ccccc12)NC(=O)CNC(=O)[C@@H](NC(=O)[C@H](CCCCN)NC(=O)[C@H](CO)NC(=O)[C@@H](N)CCCCN)C(C)C)C(=O)N[C@@H](Cc1ccc(N)cc1)C(=O)N[C@@H](CC(C)C)C(=O)N[C@@H](Cc1ccccc1)C(=O)N[C@@H](Cc1c[nH]cn1)C(=O)N[C@@H](CCCCN)C(=O)N[C@@H](CCCCN)C(N)=O [XMP.123] (H-KSKVGWLI[Phe(4-NH2)]LFHKK-NH2),1721 pmol/30 mm^2 zone
19,H-KSKVGWLIQLFLKK-NH2 [XMP.87],>1536 pmol/30 mm^2 zone

# Same assay, conditions: pmoles of peptide added to well to achieve a 30 mm^2 zone, PROBIT analysis; crude or purified (P′) peptide; listed as XMP.267P′
row,Compound,C. albicans pmol/30 mm^2 zone
1,H-KSKVKWAIQLFHKK-NH2 [XMP.267],106 pmol/30 mm^2 zone

# Same assay, conditions: pmoles of peptide added to well to achieve a 30 mm^2 zone, PROBIT analysis; crude or purified (P′) peptide; listed as XMP.288P′
row,Compound,C. albicans pmol/30 mm^2 zone
1,H-KVKWLIQLFHK-NH2 [XMP.288],279 pmol/30 mm^2 zone

# Same assay, conditions: pmoles of peptide added to well to achieve a 30 mm^2 zone, PROBIT analysis; crude or purified (P′) peptide; listed as XMP.289P′
row,Compound,C. albicans pmol/30 mm^2 zone
1,H-VKWLIQLFHKK-NH2 [XMP.289],658 pmol/30 mm^2 zone

# Same assay, conditions: pmoles of peptide added to well to achieve a 30 mm^2 zone, PROBIT analysis; crude or purified (P′) peptide; listed as XMP.298P′
row,Compound,C. albicans pmol/30 mm^2 zone
1,CC[C@H](C)[C@H](NC(=O)[C@H](CC(C)C)NC(=O)[C@@H](N)Cc1c[nH]c2ccccc12)C(=O)N[C@@H](CCC(N)=O)C(=O)N[C@@H](CC(C)C)C(=O)N[C@@H](Cc1ccccc1)C(=O)N[C@@H](Cc1c[nH]cn1)C(=O)N[C@@H](CCCCN)C(=O)N[C@@H](CCCCN)C(N)=O [XMP.298],"1,106 pmol/30 mm^2 zone"

# Same assay, conditions: pmoles of peptide added to well to achieve a 30 mm^2 zone, PROBIT analysis; crude or purified (P′) peptide; listed as XMP.303P′
row,Compound,C. albicans pmol/30 mm^2 zone
1,CC[C@H](C)[C@H](NC(=O)[C@H](CC(C)C)NC(=O)[C@@H](N)Cc1c[nH]c2ccccc12)C(=O)N[C@@H](CCC(N)=O)C(=O)N[C@@H](CC(C)C)C(=O)N[C@@H](Cc1ccccc1)C(=O)N[C@@H](Cc1c[nH]cn1)C(=O)N[C@@H](CCCCN)C(N)=O [XMP.303],"1,307 pmol/30 mm^2 zone"

# Same assay, conditions: pmoles of peptide added to well to achieve a 30 mm^2 zone, PROBIT analysis; crude or purified (P′) peptide; listed as XMP.316P′
row,Compound,C. albicans pmol/30 mm^2 zone
1,H-WLIQLF-NH2 [XMP.316],"g (inactive to 7,194 pmol)"
